We go through four molecules from patent US20250203808A1, “REFRIGERANTS FOR AND METHODS OF COOLING ELECTRONICS” (HONEYWELL INTERNATIONAL INC., priority 2023, published 2025).

SMILES strings stand for the structures. Read-outs that look alike come from different tables or passages of the source.

A word on the boiling point: it is the temperature at which the vapour pressure of the liquid equals the pressure above it.

A short description of data set [1]: Boiling point determination. In kind it is physicochemical. The following applies: for boiling point: Table 1, values understood as 'about'; for BP: Table E1. How it is done:
(§1) The boiling point (“BP”) and dielectric constant (“Dk”) of HFO-1438ez(E) and HFO-1438ez(Z) were determined and the results are reported below in Table E1. Static dielectric constant for new molecules was calculated using Kirkwood theory as described in papers by Wang and Anderko [P. Wang and A. Anderko, Computation of dielectric constants of solvent mixtures and electrolyte solutions, Fluid Phase Equilibria 186 (2001) 103-122] and Harvey and Lemmon [A. H. Harvey and E. W. Lemmon, Method for estimating dielectric constant of natural gas mixtures, International Journal of Thermophysics 26 (2005) 31-46]. The dielectric property of each of HFO-1438ez(E) and HFO-1438ez(Z) was determined using the Agilent 85070 Dielectric Probe. All measurements were made at ambient pressure and room temperature (approximately 23° C.). Prior to making measurements, the system was calibrated from 1 GHz to 20 GHz with an open circuit, a short circuit, and DI water (@22.4° C.) standard. The result of the calibration is shown in the Table E1 below for DI H2O, and is consistent with DI water at 22.4° C. The accuracy of the probe is given as: Dielectric constant, er′=er′+/−0.05|er*| with er″=er″+/−0.05|er*| and (loss=er″/er′).

Data set [2] is described as follows: Dielectric constant and dissipation factor, Agilent 85070 Dielectric Probe, 20 GHz. In kind it is physicochemical. The following applies: values 'about'; for Dielectric Constant (20 GHz): room temperature. How it is done: “Dielectric Constant” means the dielectric constant as measured in accordance with ASTM D150-11 at room temperature at 20 giga hertz (GHz).
as §1

For data set [3] the following is noted: background, commercial 3M fluids; cited from earlier work.
For data set [4] the following is noted: background, commercial 3M fluids; cited from earlier work. This is another data set of the same source.

For `F/C=C\C(F)(C(F)(F)F)C(F)(F)F` [HFO-1438ezy(Z), (Z)-1,3,4,4,4-pentafluoro-(3-trifluoromethyl)-but-1-ene], in data set [1], the boiling point worked out at 55 °C and the BP worked out at 55 °C. In addition, the “Dielectric Constant (20 GHz)” value in data set [2] was determined as 7.8.
With `COC(F)(F)C(F)(F)C(F)(F)F` [HFE7000, 1-methoxyheptafluoropropane (C3F7OCH3)], the dielectric constant in data set [3] is reported as 7.4. Besides, in data set [4], the boiling point is 34 °C.
Turning to `FC(F)(F)N1C(F)(F)C(F)(F)OC(F)(F)C1(F)F` [FC-3284], the boiling point in data set [4] is 50 °C.
Turning to `F/C=C/C(F)(C(F)(F)F)C(F)(F)F` [HFO-1438ezy(E), (E)-1,3,4,4,4-pentafluoro-(3-trifluoromethyl)-but-1-ene], in data set [1], the boiling point amounted to 28 °C and the BP turned out to be 30 °C. In data set [2], the “Dielectric Constant (20 GHz)” value is on record as 2.43 and the “Dissipation Factor (20 GHz)” value is listed as 0.09.
